Test results reported in ChEMBL document CHEMBL1201862, “PubChem BioAssay data set” (2004).
Calls of active or inactive are those of the source.

Tests used:
[1] = molecular target: T1, Voltage-gated N-type calcium channel alpha-1B subunit/Amyloid beta A4 precursor protein-binding family A member 1 (Homo sapiens, UniProt Q00975+Q02410); type: protein assay
[2] = molecular target: T2, Dual specificity protein phosphatase 6 (Rattus norvegicus, UniProt Q64346); assay: inhibition of rat DUSP6 enzyme activity – biochemical, in vitro, primary screen (AID 425)
T2 sequence (Q64346 whole entry): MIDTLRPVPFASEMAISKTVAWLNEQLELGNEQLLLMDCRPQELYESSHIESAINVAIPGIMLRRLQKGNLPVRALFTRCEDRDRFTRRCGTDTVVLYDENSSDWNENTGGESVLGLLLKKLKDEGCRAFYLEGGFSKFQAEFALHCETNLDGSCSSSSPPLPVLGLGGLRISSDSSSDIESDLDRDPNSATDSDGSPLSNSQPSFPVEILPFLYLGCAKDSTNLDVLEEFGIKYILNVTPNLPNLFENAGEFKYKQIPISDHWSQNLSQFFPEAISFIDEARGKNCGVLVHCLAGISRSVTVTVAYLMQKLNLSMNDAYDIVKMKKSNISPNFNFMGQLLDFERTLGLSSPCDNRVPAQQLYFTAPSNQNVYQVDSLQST

[3] = molecular target: T3, Dual specificity protein phosphatase 3 (Homo sapiens, UniProt P51452); assay: VHR1 phosphatase inhibitors, primary screen, biochemical, absorbance, uHTS (AID 1654)
[4] = molecular target: T4, Carboxy-terminal domain RNA polymerase II polypeptide A small phosphatase 1 (Homo sapiens, UniProt Q9GZU7); assay: CTDSP1 inhibitors, concentration-response, biochemical, absorbance readout, ultra-high-throughput screen actives (AID 540297); type: functional
T4 sequence (Q9GZU7 whole entry): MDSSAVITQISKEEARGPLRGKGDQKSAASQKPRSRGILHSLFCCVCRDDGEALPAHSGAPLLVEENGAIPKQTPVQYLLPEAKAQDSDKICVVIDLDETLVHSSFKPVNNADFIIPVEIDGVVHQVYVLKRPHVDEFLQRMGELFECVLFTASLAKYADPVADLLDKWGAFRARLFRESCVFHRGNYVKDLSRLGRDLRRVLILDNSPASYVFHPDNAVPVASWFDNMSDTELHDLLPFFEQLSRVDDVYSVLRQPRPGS

[5] = molecular target: T1, Voltage-gated N-type calcium channel alpha-1B subunit/Amyloid beta A4 precursor protein-binding family A member 1; type: protein assay; remark: listed apart in the source
[6] = molecular target: T3, Dual specificity protein phosphatase 3; assay: VHR1 phosphatase inhibitors, biochemical (AID 1878)
[7] = viability of PTEN-deleted HCT116 cells – cell-based, HCT116 PTEN knockout, dose response (AID 1047); type: functional;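 further: HCT116 colon tumor cells with PTEN knocked out; cells exposed to compound for 60 hours before readout; potency for loss of cell viability measured by luminescence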
[8] = molecular target: T5, Beta-2 adrenergic receptor (Homo sapiens, UniProt P07550); assay: ADRB2 activation measured by internalization – cell-based, FAP fluorogen, flow cytometry, cherry pick 1, dose response (AID 588763); type: functional
[9] = molecular target: G-protein coupled receptor 55 (Homo sapiens, UniProt Q9Y2T6); assay: blockers of GPR55 signalling, imaged – imaging, image-based, counter-screen for GPR35 antagonist project, SAR follow-up (AID 2397); type: functional
[10] = viability of HCT116 lacking mutant beta-catenin – cell-based, human colon tumor, dose response (AID 1045); type: functional;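 further: HCT116 colon tumor cells with beta catenin knocked out; cells exposed to compound for 60 hours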
[11] = molecular target: T6, G-protein coupled receptor 35 (Homo sapiens, UniProt Q9HC97); assay: SAR Analysis for the identification of Selective Antagonists of ERK1/2 Activity in GPR35-Overexpressing U2OS Cells. [Related pubchem assays: 2079, 2058 ]; type: functional, cell-based
[12] = molecular target: T5, Beta-2 adrenergic receptor; assay: Dose response for HTS for Beta-2AR agonists via FAP method from Powderset3.; type: functional
[13] = microbe, parasite or virus in culture; type: functional; details: Mycobacterium tuberculosis
[14] = molecular target: T6, G-protein coupled receptor 35; assay: inhibition of zaprinast-stimulated GPR35 beta-arrestin translocation – imaging, U2OS, beta-arrestin-GFP, zaprinast agonist, primary screen (AID 2058); type: functional;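 further: antagonist potency meaning inhibition of agonist-induced arrestin redistribution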
[15] = molecular target: Intestinal-type alkaline phosphatase (Mus musculus, UniProt P24822); assay: PubChem AID 488785; type: functional
[16] = Trypanosoma cruzi growth suppression in host cells – NIH3T3 host cells, beta-gal luminescence, confirmation (AID 2044); type: functional, cell-based;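 further: intracellular parasites grown in NIH/3T3 mouse fibroblasts as host cells; luminescent beta-galactosidase reporter signal from transgenic T. cruzi replicating inside host cells; inhibitors lower the luminescence signal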
[17] = NIH3T3 cell viability loss – ATP luminescence, mouse fibroblasts, counter-screen, dose response (AID 2010); type: functional, cell-based;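 further: cells exposed to compound for about 90 hours before reading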
[18] = molecular target: Intestinal-type alkaline phosphatase (Homo sapiens, UniProt P09923); assay: inhibition of human intestinal alkaline phosphatase – biochemical, dose response (AID 488876); type: functional
[19] = molecular target: T7, Alkaline phosphatase, tissue-nonspecific isozyme (Homo sapiens, UniProt P05186); assay: TNAP enzyme inhibition by screening hits, dose response, selectivity assay for mouse IAP inhibitor project, biochemical, human TNAP, uHTS hits (AID 488906); type: functional
T7 sequence (P05186 whole entry): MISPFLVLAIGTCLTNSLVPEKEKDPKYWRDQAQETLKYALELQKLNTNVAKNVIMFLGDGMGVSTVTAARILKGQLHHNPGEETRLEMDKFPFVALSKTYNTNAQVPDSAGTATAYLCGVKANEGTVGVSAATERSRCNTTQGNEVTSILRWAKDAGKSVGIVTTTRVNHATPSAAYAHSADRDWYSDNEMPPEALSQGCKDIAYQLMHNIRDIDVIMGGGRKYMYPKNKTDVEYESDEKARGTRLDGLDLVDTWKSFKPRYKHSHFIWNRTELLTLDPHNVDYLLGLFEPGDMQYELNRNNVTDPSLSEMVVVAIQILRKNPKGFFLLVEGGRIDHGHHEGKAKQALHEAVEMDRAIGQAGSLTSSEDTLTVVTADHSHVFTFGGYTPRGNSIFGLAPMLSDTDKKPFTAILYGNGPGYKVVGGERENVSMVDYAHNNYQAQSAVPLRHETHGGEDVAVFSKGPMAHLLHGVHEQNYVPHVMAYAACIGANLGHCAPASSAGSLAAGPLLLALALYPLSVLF

[20] = molecular target: CAAX prenyl protease 2 (Homo sapiens, UniProt Q9Y256); assay: inhibition of Ras-converting CAAX protease Rce1 – biochemical, yeast membranes, quenched-peptide fluorescence, cherry-pick, dose response (AID 588849)
[21] = molecular target: FAD-linked sulfhydryl oxidase ALR (Homo sapiens, UniProt P55789); assay: ALR-catalysed DTT oxidation blockers – biochemical, H2O2 detection, luminescence, cherry-pick, dose response (AID 493248)
[22] = molecular target: Trypsin (Sus scrofa, UniProt P00761); assay: trypsin protease activity blockade – biochemical, quenched peptide fluorescence, cherry-pick, selectivity assay for Rce1 protease inhibitor project, dose response (AID 488789)
[23] = molecular target: CAAX prenyl protease 1 (Saccharomyces cerevisiae S288c, UniProt P47154); assay: yeast CAAX protease Ste24 inhibition – biochemical, S. cerevisiae, plate reader, cherry-pick, dose response (AID 488815)
[24] = molecular target: T8, Short transient receptor potential channel 4 (Mus musculus, UniProt Q9QUQ5); assay: SAR Analysis for the identification of selective inhibits of the transient receptor potential cation channel C4 (TRPC4): Automated Electrophysiology. [Related pubchem assays (depositor defined):AID2256]; type: functional
T8 sequence (Q9QUQ5 whole entry): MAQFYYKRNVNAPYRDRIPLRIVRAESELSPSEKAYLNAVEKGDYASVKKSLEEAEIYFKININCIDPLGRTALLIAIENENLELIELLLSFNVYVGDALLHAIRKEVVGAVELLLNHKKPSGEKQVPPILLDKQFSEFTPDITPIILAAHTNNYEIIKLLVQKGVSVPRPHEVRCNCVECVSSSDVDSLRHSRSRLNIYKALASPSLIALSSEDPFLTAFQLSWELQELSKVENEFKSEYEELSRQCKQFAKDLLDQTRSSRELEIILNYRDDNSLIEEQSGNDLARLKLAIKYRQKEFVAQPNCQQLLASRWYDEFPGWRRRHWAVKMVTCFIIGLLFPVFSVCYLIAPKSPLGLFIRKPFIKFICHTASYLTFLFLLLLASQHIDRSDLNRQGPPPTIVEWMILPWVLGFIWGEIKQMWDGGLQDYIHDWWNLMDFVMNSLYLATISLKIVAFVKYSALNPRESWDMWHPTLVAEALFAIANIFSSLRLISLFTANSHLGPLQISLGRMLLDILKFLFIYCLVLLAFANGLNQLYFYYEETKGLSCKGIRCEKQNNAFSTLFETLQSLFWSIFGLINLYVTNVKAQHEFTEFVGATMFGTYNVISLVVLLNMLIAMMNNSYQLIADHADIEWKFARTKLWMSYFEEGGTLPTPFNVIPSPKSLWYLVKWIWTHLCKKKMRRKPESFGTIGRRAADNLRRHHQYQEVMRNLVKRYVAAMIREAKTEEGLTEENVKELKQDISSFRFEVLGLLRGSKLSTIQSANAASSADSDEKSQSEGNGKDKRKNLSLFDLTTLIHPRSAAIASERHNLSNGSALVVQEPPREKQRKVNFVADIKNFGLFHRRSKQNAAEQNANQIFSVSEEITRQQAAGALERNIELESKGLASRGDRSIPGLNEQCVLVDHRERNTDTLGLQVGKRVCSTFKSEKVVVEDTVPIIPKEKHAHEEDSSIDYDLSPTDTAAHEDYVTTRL

[25] = molecular target: T8, Short transient receptor potential channel 4; assay: block of DAMGO-driven TRPC4 calcium entry – cell-based, HEK293 TRPC4/mu-opioid, Fluo-4 calcium, dose response (AID 434942); type: functional;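 further: potency of inhibitors blocking the TRPC4 calcium response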
[26] = molecular target: Cytochrome P450 2D6 (Homo sapiens, UniProt P10635);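 further: CYP2D6 member of a cytochrome P450 panel assay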

T3 sequence (P51452 whole entry, the tested form may be a part): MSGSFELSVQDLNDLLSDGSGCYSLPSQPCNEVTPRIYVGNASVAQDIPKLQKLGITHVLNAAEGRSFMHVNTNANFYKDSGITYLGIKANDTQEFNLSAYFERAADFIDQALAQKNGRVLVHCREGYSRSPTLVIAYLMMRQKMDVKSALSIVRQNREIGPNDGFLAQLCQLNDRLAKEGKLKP
T5 sequence (P07550 whole entry): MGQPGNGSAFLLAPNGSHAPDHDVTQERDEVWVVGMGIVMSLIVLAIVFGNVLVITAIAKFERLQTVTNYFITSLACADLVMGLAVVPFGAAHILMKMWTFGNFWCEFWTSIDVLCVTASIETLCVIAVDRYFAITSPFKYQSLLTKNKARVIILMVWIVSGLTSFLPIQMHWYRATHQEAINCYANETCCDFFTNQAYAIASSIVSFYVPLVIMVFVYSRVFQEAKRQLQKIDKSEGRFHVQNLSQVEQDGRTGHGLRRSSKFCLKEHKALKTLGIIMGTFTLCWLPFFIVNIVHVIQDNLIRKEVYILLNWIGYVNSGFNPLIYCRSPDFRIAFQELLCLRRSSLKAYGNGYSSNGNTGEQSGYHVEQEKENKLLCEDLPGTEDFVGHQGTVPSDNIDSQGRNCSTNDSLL
T6 sequence (Q9HC97 whole entry): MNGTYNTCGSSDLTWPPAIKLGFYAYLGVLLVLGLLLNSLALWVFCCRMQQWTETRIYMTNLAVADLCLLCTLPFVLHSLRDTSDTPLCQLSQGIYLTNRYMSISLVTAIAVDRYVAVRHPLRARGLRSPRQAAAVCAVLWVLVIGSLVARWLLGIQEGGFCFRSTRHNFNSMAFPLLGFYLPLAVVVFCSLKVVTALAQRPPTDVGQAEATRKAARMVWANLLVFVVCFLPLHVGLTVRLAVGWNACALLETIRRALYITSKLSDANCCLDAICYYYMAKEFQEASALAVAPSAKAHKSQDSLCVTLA
T1 sequence (Q00975 whole entry): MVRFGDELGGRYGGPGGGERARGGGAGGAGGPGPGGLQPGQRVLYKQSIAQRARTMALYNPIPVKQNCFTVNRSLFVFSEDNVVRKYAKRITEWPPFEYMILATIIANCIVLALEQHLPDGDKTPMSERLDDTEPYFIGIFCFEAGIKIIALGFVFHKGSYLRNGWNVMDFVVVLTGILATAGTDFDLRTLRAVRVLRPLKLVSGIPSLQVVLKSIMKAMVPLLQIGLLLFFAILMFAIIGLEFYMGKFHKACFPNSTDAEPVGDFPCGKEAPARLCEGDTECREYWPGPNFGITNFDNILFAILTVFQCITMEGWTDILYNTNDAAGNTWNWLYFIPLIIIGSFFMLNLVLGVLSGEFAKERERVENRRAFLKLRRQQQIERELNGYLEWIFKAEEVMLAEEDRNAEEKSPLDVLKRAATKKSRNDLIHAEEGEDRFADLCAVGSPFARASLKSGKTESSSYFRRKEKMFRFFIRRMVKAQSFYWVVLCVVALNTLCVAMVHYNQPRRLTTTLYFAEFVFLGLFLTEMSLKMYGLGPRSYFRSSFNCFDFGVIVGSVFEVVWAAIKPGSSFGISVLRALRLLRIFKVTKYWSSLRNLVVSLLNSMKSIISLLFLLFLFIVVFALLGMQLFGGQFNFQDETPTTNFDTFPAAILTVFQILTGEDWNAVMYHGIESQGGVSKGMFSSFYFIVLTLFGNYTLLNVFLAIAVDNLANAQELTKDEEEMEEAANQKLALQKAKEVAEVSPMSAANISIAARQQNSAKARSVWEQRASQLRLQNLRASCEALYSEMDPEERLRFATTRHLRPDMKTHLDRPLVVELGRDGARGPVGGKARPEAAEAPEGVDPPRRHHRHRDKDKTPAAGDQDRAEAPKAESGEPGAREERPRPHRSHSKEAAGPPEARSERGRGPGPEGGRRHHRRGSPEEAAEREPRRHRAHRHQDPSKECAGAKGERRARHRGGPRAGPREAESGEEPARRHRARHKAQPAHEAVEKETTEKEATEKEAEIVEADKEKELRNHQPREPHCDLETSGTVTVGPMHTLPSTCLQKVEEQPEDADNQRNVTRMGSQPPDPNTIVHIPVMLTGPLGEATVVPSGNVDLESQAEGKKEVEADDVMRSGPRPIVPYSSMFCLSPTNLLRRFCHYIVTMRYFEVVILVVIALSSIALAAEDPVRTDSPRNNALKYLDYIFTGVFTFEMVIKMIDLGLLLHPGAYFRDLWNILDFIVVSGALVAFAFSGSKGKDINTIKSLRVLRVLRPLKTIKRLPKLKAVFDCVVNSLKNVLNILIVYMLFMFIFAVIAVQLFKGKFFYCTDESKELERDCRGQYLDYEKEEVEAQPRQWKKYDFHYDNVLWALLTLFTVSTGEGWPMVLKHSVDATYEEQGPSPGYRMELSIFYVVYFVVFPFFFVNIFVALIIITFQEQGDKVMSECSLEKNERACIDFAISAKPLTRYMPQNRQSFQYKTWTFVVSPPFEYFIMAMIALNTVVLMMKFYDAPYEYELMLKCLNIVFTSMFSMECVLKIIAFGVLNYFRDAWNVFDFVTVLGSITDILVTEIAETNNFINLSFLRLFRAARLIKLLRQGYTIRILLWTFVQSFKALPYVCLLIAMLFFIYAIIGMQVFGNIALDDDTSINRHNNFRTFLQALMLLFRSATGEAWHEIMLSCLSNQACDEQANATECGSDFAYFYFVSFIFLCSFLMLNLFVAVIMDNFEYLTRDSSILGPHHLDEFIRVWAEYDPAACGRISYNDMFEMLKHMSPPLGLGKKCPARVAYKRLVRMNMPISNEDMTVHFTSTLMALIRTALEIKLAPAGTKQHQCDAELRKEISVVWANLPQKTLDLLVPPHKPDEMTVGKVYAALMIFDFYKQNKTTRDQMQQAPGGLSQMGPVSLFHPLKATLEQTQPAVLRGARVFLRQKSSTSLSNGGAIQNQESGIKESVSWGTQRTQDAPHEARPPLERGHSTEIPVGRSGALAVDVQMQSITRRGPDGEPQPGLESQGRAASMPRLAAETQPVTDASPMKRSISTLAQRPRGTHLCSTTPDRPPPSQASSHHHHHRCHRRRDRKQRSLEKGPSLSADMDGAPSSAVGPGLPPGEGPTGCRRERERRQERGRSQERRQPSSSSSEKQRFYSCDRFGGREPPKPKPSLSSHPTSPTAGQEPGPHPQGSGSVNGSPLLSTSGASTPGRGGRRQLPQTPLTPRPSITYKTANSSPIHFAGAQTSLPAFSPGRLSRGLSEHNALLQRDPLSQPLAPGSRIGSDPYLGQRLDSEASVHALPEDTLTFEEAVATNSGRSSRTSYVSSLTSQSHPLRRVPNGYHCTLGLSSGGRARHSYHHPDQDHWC
T1 sequence (Q02410 whole entry): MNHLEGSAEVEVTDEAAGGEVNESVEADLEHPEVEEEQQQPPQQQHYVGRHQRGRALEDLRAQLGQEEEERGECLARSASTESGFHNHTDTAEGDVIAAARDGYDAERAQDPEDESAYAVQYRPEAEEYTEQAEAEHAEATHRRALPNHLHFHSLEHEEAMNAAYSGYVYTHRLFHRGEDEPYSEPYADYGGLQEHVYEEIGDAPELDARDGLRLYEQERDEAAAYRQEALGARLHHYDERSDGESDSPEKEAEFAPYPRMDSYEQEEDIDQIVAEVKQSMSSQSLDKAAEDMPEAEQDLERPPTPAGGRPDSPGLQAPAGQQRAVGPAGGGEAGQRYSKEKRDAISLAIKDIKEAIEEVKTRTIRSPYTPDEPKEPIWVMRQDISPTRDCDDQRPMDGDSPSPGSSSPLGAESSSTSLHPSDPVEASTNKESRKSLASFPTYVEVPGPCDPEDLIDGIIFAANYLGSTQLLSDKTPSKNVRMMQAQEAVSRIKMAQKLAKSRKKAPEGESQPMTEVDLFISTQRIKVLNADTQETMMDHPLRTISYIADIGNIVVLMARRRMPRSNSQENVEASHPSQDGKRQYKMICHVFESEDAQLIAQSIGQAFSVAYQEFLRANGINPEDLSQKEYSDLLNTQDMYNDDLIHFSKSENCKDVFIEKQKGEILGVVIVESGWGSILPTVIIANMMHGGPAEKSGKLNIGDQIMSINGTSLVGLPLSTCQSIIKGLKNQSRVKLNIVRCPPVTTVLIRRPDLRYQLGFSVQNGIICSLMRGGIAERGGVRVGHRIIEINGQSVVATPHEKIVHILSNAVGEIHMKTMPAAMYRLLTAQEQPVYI
Sequence of CAAX prenyl protease 2 (Q9Y256 whole entry): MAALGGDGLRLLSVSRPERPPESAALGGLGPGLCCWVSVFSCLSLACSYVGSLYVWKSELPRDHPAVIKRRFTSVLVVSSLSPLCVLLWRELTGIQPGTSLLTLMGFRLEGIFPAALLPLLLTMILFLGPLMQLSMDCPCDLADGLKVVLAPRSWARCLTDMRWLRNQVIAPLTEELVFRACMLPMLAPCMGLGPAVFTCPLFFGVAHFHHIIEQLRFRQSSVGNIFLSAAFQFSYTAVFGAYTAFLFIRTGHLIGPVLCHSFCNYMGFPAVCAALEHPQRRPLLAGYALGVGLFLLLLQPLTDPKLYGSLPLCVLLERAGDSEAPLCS
Sequence of Trypsin (P00761 whole entry): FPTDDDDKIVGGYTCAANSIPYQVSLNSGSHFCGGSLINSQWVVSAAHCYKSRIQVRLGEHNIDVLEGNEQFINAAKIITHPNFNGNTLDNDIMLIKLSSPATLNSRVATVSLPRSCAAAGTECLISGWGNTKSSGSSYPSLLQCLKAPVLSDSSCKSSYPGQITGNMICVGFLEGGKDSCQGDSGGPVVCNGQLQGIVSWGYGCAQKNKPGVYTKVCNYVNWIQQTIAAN
Sequence of G-protein coupled receptor 55 (Q9Y2T6 whole entry): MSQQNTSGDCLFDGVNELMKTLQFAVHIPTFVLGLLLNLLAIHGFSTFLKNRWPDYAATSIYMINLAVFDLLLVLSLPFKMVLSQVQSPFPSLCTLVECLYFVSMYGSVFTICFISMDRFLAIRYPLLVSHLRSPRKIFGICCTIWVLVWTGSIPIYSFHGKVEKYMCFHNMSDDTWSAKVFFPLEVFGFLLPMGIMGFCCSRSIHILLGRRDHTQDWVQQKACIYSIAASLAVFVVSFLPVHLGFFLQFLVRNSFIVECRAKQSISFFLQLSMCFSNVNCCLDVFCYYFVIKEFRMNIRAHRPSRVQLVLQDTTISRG

COc1ccc(NC(=O)c2cc3c(COC(C)=O)cnc(C)c3o/c2=N\c2cccc(C(=O)O)c2)c(OC)c1
IC50 [1]: > 50 µM (inactive) | IC50 [2]: > 158 µM (not active) | IC50 [3]: 4.9 µM (active) | IC50 [4]: 0.737 µM (active) | IC50 [5]: 3.13 µM (active) | IC50 [6]: 1.53 µM (active)

Cc1ccccc1N1CCN(c2ncnc3c2cnn3Cc2ccc(Cl)cc2)CC1
EC50 [7]: 42.2 µM (active) | EC50 [8]: 4.09 µM (active) | IC50 [9]: > 32 µM (inactive) | EC50 [10]: 54.1 µM (active) | IC50 [11]: > 32 µM (not active) | EC50 [12]: 1.14 µM (active) | CC50 [13]: > 40 µM (active) | IC50 [14]: 0.615 µM (active)

Cc1nn(C(C)C)c(C)c1CN1CCC(C(=O)Nc2cccc(-c3cccc(F)c3)c2)CC1
IC50 [15]: 7.53 µM (active) | EC50 [16]: 1.15 µM (active) | EC50 [17]: 30.4 µM (active) | IC50 [18]: 12 µM (active) | IC50 [19]: 53 µM (active)

Oc1ccc(-c2cn3cc(C(F)(F)F)ccc3n2)cc1
AC50 [20]: 10.5 µM (active) | AC50 [21]: 3.4 µM (active) | AC50 [22]: 11.1 µM (active) | AC50 [23]: 8.29 µM (active)

N=C(NC1CCCCC1)c1ccc(Cl)cc1
IC50 [24]: 4.56 µM (active) | EC50 [25]: 1.68 µM (active)

Cc1cc2c(s1)CCCCC(=O)N2
AC50 [26]: inconclusive
